Experimental data from patent US7795261B2, “Substituted 1-piperidin-4-yl-4-pyrrolidin-3-yl-piperazine derivatives and their use as neurokinin antagonists” (Janssen Pharmaceutica NV, priority 2002, dated 2010).

Legend:
Type in all cases: cell-based
[1] = molecular target: T1, NK2 (Homo sapiens, UniProt P21452); test: Signal transduction (ST), intracellular Ca++ (FLIPR), NK2; conditions: read-out: pIC50 NK2 (converted)
T1 sequence (P21452 1-398): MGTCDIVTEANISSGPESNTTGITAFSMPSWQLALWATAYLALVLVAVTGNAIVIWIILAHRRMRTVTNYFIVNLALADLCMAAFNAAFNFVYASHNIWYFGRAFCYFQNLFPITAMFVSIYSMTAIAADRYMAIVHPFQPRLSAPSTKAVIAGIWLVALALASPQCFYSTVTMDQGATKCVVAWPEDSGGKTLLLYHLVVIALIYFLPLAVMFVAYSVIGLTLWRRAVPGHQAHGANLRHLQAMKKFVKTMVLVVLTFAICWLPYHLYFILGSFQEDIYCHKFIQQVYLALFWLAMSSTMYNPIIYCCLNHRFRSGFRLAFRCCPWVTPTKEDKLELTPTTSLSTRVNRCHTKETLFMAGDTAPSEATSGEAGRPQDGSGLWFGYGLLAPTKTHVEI

[2] = molecular target: NK1 (Homo sapiens, UniProt P25103); test: Signal transduction (ST), intracellular Ca++ (FLIPR), NK1 antagonistic activity; conditions: read-out: pIC50 NK1 (converted)
Sequence of NK1 (P25103 whole entry): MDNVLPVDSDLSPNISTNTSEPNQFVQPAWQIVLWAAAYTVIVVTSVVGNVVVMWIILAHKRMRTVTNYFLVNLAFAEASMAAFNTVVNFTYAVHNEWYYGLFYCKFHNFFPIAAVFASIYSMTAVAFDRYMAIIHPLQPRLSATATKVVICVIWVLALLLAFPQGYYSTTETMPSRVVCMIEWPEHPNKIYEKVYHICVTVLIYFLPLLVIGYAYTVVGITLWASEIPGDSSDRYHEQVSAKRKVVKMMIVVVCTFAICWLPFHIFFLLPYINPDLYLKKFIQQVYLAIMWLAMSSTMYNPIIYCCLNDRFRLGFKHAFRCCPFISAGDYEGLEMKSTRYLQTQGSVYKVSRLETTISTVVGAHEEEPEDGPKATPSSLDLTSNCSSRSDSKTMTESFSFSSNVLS
How it was run: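 Confluent cells loaded with 2 μM Fluo3 (1 h, 37 °C, probenecid), preincubated 20 min at RT with antagonist concentration range, then agonist added. Peak Ca++ transient read by FLIPR in Krebs buffer pH 7.4; IC50 by non-linear regression.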

[3] = molecular target: T2, NK3 (Homo sapiens, UniProt P29371); test: Signal transduction (ST), intracellular Ca++ (FLIPR), NK3; conditions: read-out: pIC50 NK3 (converted)
T2 sequence (P29371 1-465): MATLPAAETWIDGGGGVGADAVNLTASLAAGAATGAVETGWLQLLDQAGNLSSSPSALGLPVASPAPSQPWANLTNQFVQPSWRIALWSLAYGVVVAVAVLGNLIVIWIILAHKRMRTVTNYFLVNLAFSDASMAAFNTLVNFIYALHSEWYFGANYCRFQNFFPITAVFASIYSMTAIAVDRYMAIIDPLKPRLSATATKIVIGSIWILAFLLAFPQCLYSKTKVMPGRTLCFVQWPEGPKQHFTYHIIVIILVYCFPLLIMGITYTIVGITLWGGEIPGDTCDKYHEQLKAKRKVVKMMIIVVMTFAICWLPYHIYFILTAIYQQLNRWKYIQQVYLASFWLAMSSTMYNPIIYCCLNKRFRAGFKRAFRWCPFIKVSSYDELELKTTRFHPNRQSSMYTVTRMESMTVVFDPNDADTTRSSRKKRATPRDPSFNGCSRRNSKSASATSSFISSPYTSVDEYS

IC50 [1] [µM]	IC50 [2] [µM]	IC50 [3] [µM]	Structure (SMILES)
3.98	0.0316	1.26	Cc1cc(C(=O)N2CCC(N3CCN([C@H]4CCN(C(=O)c5cc(C(F)(F)F)cc(C(F)(F)F)c5)[C@H](Cc5ccccc5)C4)CC3)C2)no1 (stereo partly drawn) [Compound 46]
3.16	0.0251	0.251	Cc1onc(-c2c(Cl)cccc2Cl)c1C(=O)N1CCC(N2CCN([C@H]3CCN(C(=O)c4cc(C(F)(F)F)cc(C(F)(F)F)c4)[C@H](Cc4ccccc4)C3)CC2)C1 (stereo partly drawn) [Compound 49]
3.16	0.0398	0.126	O=C(c1c[nH]c2ccccc12)N1CCC(N2CCN([C@H]3CCN(C(=O)c4cc(C(F)(F)F)cc(C(F)(F)F)c4)[C@H](Cc4ccccc4)C3)CC2)C1 (stereo partly drawn) [Compound 56]
2.51	0.0501	0.158	O=C(C(=O)N1CCC(N2CCN(C3CCN(C(=O)c4cc(C(F)(F)F)cc(C(F)(F)F)c4)C(Cc4ccccc4)C3)CC2)C1)c1ccco1 (stereo not drawn) [Compound 64]
5.01	0.0251	0.398	O=C(Cc1ccco1)N1CCC(N2CCN([C@H]3CCN(C(=O)c4cc(C(F)(F)F)cc(C(F)(F)F)c4)[C@H](Cc4ccccc4)C3)CC2)C1 (stereo partly drawn) [Compound 66]
3.98	0.0251	1	O=C(Cc1cccs1)N1CCC(N2CCN([C@H]3CCN(C(=O)c4cc(C(F)(F)F)cc(C(F)(F)F)c4)[C@H](Cc4ccccc4)C3)CC2)C1 (stereo partly drawn) [Compound 67]
0.631	0.0126	0.501	CC(C(=O)N1CCC(N2CCN([C@H]3CCN(C(=O)c4cc(C(F)(F)F)cc(C(F)(F)F)c4)[C@H](Cc4ccccc4)C3)CC2)C1)c1ccccc1 (stereo partly drawn) [Compound 69]
0.0631	0.0501	0.794	O=C(C1CC1)N1CCC(N2CCN([C@H]3CCN(C(=O)c4cc(C(F)(F)F)cc(C(F)(F)F)c4)[C@H](Cc4ccccc4)C3)CC2)C1 (stereo partly drawn) [Compound 72]
1	0.0251	0.398	O=C(c1cc(C(F)(F)F)cc(C(F)(F)F)c1)N1CC[C@H](N2CCN(C3CCN(S(=O)(=O)c4ccccc4)C3)CC2)C[C@H]1Cc1ccccc1 (stereo partly drawn) [Compound 75]
1.26	0.02	0.2	O=C(c1cc(C(F)(F)F)cc(C(F)(F)F)c1)N1CC[C@H](N2CCN(C3CCN(S(=O)(=O)c4cccs4)C3)CC2)C[C@H]1Cc1ccccc1 (stereo partly drawn) [Compound 76]
2.51	0.02	0.501	COC(=O)c1sccc1S(=O)(=O)N1CCC(N2CCN([C@H]3CCN(C(=O)c4cc(C(F)(F)F)cc(C(F)(F)F)c4)[C@H](Cc4ccccc4)C3)CC2)C1 (stereo partly drawn) [Compound 77]
0.398	0.0316	0.251	Cc1nc(S(=O)(=O)N2CCC(N3CCN([C@H]4CCN(C(=O)c5cc(C(F)(F)F)cc(C(F)(F)F)c5)[C@H](Cc5ccccc5)C4)CC3)C2)cn1C (stereo partly drawn) [Compound 78]
1	0.0158	0.501	Cc1noc(C)c1S(=O)(=O)N1CCC(N2CCN(C3CCN(C(=O)c4cc(C(F)(F)F)cc(C(F)(F)F)c4)C(Cc4ccccc4)C3)CC2)C1 (stereo not drawn) [Compound 79]
5.01	0.0158	0.398	Cn1cccc1C(=O)CN1CCC(N2CCN([C@H]3CCN(C(=O)c4cc(C(F)(F)F)cc(C(F)(F)F)c4)[C@H](Cc4ccccc4)C3)CC2)C1 (stereo partly drawn) [Compound 103]
3.16	0.1	0.631	O=C(C(NCc1ccccc1)c1ccccc1)N1CCC(N2CCN([C@H]3CCN(C(=O)c4cc(C(F)(F)F)cc(C(F)(F)F)c4)[C@H](Cc4ccccc4)C3)CC2)C1 (stereo partly drawn) [Compound 107]
7.94	0.02	0.316	CC(C)(C)OC(=O)N1CCC[C@H]1C(=O)N1CCC(N2CCN([C@H]3CCN(C(=O)c4cc(C(F)(F)F)cc(C(F)(F)F)c4)[C@H](Cc4ccccc4)C3)CC2)C1 (stereo partly drawn) [Compound 115]
2	0.00794	0.631	CC(C)(C)C(=O)N1CCC(N2CCN(C3CCN(C(=O)c4cc(C(F)(F)F)cc(C(F)(F)F)c4)C(Cc4ccccc4)C3)CC2)C1 (stereo not drawn) [Compound 167]
2.51	0.0126	0.251	O=C(c1c(Cl)cccc1Cl)N1CCC(N2CCN([C@H]3CCN(C(=O)c4cc(C(F)(F)F)cc(C(F)(F)F)c4)[C@H](Cc4ccccc4)C3)CC2)C1 (stereo partly drawn) [Compound 169]

IC50 [1] [µM]	IC50 [2] [µM]	IC50 [3] [µM]	Structure (SMILES)
0.794	0.00631	0.251	O=C(c1cnccn1)N1CCC(N2CCN(C3CCN(C(=O)c4cc(C(F)(F)F)cc(C(F)(F)F)c4)C(Cc4ccc(Cl)c(Cl)c4)C3)CC2)C1 (stereo not drawn) [Compound 171]
0.794	0.00794	0.398	O=C(C1CCOC1)N1CCC(N2CCN(C3CCN(C(=O)c4cc(C(F)(F)F)cc(C(F)(F)F)c4)C(Cc4ccc(Cl)c(Cl)c4)C3)CC2)C1 (stereo not drawn) [Compound 172]
0.794	0.02	0.251	O=C(c1ccoc1)N1CCC(N2CCN(C3CCN(C(=O)c4cc(C(F)(F)F)cc(C(F)(F)F)c4)C(Cc4ccc(Cl)c(Cl)c4)C3)CC2)C1 (stereo not drawn) [Compound 173]
2	0.02	1	O=C(c1ccccc1F)N1CCC(N2CCN(C3CCN(C(=O)c4cc(C(F)(F)F)cc(C(F)(F)F)c4)C(Cc4ccc(Cl)c(Cl)c4)C3)CC2)C1 (stereo not drawn) [Compound 174]
1	0.0251	0.398	O=C(c1cccs1)N1CCC(N2CCN(C3CCN(C(=O)c4cc(C(F)(F)F)cc(C(F)(F)F)c4)C(Cc4ccc(Cl)c(Cl)c4)C3)CC2)C1 (stereo not drawn) [Compound 175]
2.51	0.02	1	CC(C(=O)N1CCC(N2CCN(C3CCN(C(=O)c4cc(C(F)(F)F)cc(C(F)(F)F)c4)C(Cc4ccc(Cl)c(Cl)c4)C3)CC2)C1)c1ccccc1 (stereo not drawn) [Compound 176]
2	0.01	0.251	O=C(C1CCCCC1)N1CCC(N2CCN([C@H]3CCN(C(=O)c4cc(C(F)(F)F)cc(C(F)(F)F)c4)[C@H](Cc4ccccc4)C3)CC2)C1 (stereo partly drawn) [Compound 178]
3.16	0.01	0.251	CC(C)(C)OC(=O)NC(C)(C)C(=O)N1CCC(N2CCN(C3CCN(C(=O)c4cc(C(F)(F)F)cc(C(F)(F)F)c4)C(Cc4ccccc4)C3)CC2)C1 (stereo not drawn) [Compound 205]
0.794	0.01	0.251	CC(C)(C)OC(=O)N1CCCCC1C(=O)N1CCC(N2CCN(C3CCN(C(=O)c4cc(C(F)(F)F)cc(C(F)(F)F)c4)C(Cc4ccccc4)C3)CC2)C1 (stereo not drawn) [Compound 206]
1.26	0.00631	0.501	O=C(c1ccoc1)N1CCC(N2CCN(C3CCN(C(=O)c4cc(C(F)(F)F)cc(C(F)(F)F)c4)C(Cc4ccc(F)c(F)c4)C3)CC2)C1 (stereo not drawn) [Compound 226]
6.31	0.1	5.01	O=C(c1ccoc1)N1CC[C@H](N2CCN([C@@H]3CCN(C(=O)c4cc(C(F)(F)F)cc(C(F)(F)F)c4)[C@@H](Cc4ccc(Cl)c(Cl)c4)C3)CC2)C1 [Compound 250]
6.31	0.0501	5.01	O=C(c1ccsc1)N1CC[C@H](N2CCN([C@@H]3CCN(C(=O)c4cc(C(F)(F)F)cc(C(F)(F)F)c4)[C@@H](Cc4ccc(Cl)c(Cl)c4)C3)CC2)C1 [Compound 251]
1.26	0.0158	0.398	O=C(c1ccccc1Cl)N1CCC(N2CCN(C3CCN(C(=O)c4cc(C(F)(F)F)cc(C(F)(F)F)c4)C(Cc4ccc(F)c(F)c4)C3)CC2)C1 (stereo not drawn) [Compound 255]
1.58	0.0251	0.398	O=C(c1c(Cl)cccc1Cl)N1CCC(N2CCN(C3CCN(C(=O)c4cc(C(F)(F)F)cc(C(F)(F)F)c4)C(Cc4ccc(F)c(F)c4)C3)CC2)C1 (stereo not drawn) [Compound 256]
1.26	0.0316	0.501	CC(C)(C)OC(=O)N1CC[C@@H](N2CCN([C@H]3CCN(C(=O)c4cc(C(F)(F)F)cc(C(F)(F)F)c4)[C@H](Cc4ccc(Cl)c(Cl)c4)C3)CC2)C1 [Compound 261]
0.794	0.00631	0.316	O=C(C1CC1)N1CC[C@@H](N2CCN([C@H]3CCN(C(=O)c4cc(C(F)(F)F)cc(C(F)(F)F)c4)[C@H](Cc4ccc(Cl)c(Cl)c4)C3)CC2)C1 [Compound 263]
1.58	0.0126	0.2	O=C(c1cccs1)N1CC[C@@H](N2CCN([C@H]3CCN(C(=O)c4cc(C(F)(F)F)cc(C(F)(F)F)c4)[C@H](Cc4ccc(Cl)c(Cl)c4)C3)CC2)C1 [Compound 264]
